Test results taken from patent US10287301B2 (Achillion Pharmaceuticals, Inc., priority 2015, dated 2019).
pIC50: −log10 of the molar value.

Biological target: Human Factor D (Homo sapiens (Human), UniProt P00746)
Assay: Human Factor D Assay
Type: biochemical
Details: Human Factor D 80 nM, substrate Z-L-Lys-SBzl; read-out: IC50
Procedure: Human Factor D (purified from human serum, Complement Technology, Inc.) at 80 nM final concentration was incubated with test compound at various concentrations for 5 minutes at room temperature in 50 mM Tris, 1M NaCl, pH 7.5. A synthetic substrate Z-L-Lys-SBzl and DTNB (Ellman's reagent) are added to final concentrations of 100 μM each. […] IC50 values are calculated by nonlinear regression of complement Factor D reaction rates as a function of test compound concentration.

Chain of Human Factor D (P00746 26-253): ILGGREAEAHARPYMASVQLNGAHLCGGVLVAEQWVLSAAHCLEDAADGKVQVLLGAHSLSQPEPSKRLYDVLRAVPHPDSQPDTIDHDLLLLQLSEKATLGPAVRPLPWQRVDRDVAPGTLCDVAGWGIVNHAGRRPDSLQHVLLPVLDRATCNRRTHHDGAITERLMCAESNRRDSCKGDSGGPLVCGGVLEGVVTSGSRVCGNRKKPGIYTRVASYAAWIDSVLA

SMILES	pIC50
NC(=O)c1nn(CC(=O)N2C[C@H](F)C[C@H]2C(=O)Nc2cccc(-c3ccccc3Cl)c2F)c2ccc(-c3cn[nH]c3)cc12 [Compound 1]	> 6.00
NC(=O)c1nn(CC(=O)N2C[C@H](F)C[C@H]2C(=O)Nc2cccc(-c3ccccc3Cl)c2F)c2ccc(-c3cncnc3)cc12 [Compound 2]	> 6.00
NC(=O)c1nn(CC(=O)N2C[C@H](F)C[C@H]2C(=O)Nc2cccc(Br)n2)c2ccc(-c3ccc(N4CCOCC4)cc3)cc12 [Compound 3, 1-(2-((2S,4R)-2-((6-Bromopyridin-2-yl)carbamoyl)-4-fluoropyrrolidin-1-yl)-2-oxoethyl)-5-(4-morphlinophenyl)-1H-indazole-3-carboxamide]	> 6.00
NC(=O)c1nn(CC(=O)N2[C@@H]3C[C@@H]3C[C@H]2C(=O)Nc2cccc(Br)n2)c2ccc(-c3cncnc3)cc12 [Compound 4]	> 6.00
NC(=O)c1nn(CC(=O)N2C[C@H](F)C[C@H]2C(=O)Nc2cccc(Br)n2)c2ccc(-c3cncnc3)cc12 [Compound 5, 1-(2-((2S,4R)-2-(6-bromopyridin-2-ylcarbamoyl)-4-fluoropyrrolidin-1-yl)-2-oxoethyl)-5-(pyrimidin-5-yl)-1H-indazole-3-carboxamide]	> 6.00
NC(=O)c1nn(CC(=O)N2[C@@H]3C[C@@H]3C[C@H]2C(=O)Nc2cccc(-c3ccccc3Cl)c2F)c2ccc(-c3cncnc3)cc12 [Compound 6, 1-(2-((1R,3S,5R)-3-((2′-Chloro-2-fluoro-[1,1′-biphenyl]-3-yl)carbamoyl)-azabicyclo[3.1.0]hexan-2-yl)-2-oxoethyl)-5-(pyrimidin-5-yl)-1H-indazole-3-carboxamide]	> 6.00
NC(=O)c1nn(CC(=O)N2[C@@H]3C[C@@H]3C[C@H]2C(=O)Nc2cccc(-c3ccccc3Cl)c2F)c2ccc(-c3ncccn3)cc12 [Compound 7, 1-(2-((1R,3S,5R)-3-(2′-chloro-2-fluorobiphenyl-3-ylcarbamoyl)-2-azabicyclo[3.1.0]hexan-2-yl)-2-oxoethyl)-5-(pyrimidin-2-yl)-1H-indazole-3-carboxamide]	> 6.00
NC(=O)c1nn(CC(=O)N2[C@@H]3C[C@@H]3C[C@H]2C(=O)Nc2cccc(OC(F)(F)F)c2F)c2ccc(-c3cncnc3)cc12 [Compound 8, 1-(2-((1R,3S,5R)-3-(2-fluoro-3-(trifluoromethoxy)phenylcarbamoyl)-2-azabicyclo[3.1.0]hexan-2-yl)-2-oxoethyl)-5-(pyrimidin-5-yl)-1H-indazole-3-carboxamide]	> 6.00
NC(=O)c1nn(CC(=O)N2C[C@H](F)C[C@H]2C(=O)Nc2cccc(OC(F)(F)F)c2F)c2ccc(-c3cncnc3)cc12 [Compound 9, 1-(2-((2S,4R)-4-fluoro-2-(2-fluoro-3-(trifluoromethoxy)phenylcarbamoyl)pyrrolidin-1-yl)-2-oxoethyl)-5-(pyrimidin-5-yl)-1H-indazole-3-carboxamide]	> 6.00
NC(=O)c1nn(CC(=O)N2C[C@H](F)C[C@H]2C(=O)Nc2cccc(-c3ccccc3Cl)c2F)c2ccc(-c3cnc(N4CCCC4)nc3)cc12 [Compound 10]	> 6.00
NC(=O)c1nn(CC(=O)N2[C@@H]3C[C@@H]3C[C@H]2C(=O)Nc2cccc(Br)n2)c2ccc(-c3cnc(N4CCCC4)nc3)cc12 [Compound 11]	> 6.00
NC(=O)c1nn(CC(=O)N2C[C@H](F)C[C@H]2C(=O)Nc2cccc(-c3ccccc3Cl)c2F)c2ccc(-c3ccc(F)nc3)cc12 [Compound 12, 1-(2-((2S,4R)-2-((2′-Chloro-2-fluoro-[1,1′-biphenyl]-3-yl)carbamoyl)-4-fluoropyrrolidin-1-yl)-2-oxoethyl)-5-(6-fluoropyridin-3-yl)-1H-indazole-3-carboxamide]	> 6.00
NC(=O)c1nn(CC(=O)N2[C@@H]3C[C@@H]3C[C@H]2C(=O)Nc2cccc(-c3ccccc3Cl)c2F)c2ccc(-c3ccc(F)nc3)cc12 [Compound 13, 1-(2-((1R,3S,5R)-3-(2′-chloro-2-fluorobiphenyl-3-ylcarbamoyl)-2-azabicyclo[3.1.0]hexan-2-yl)-2-oxoethyl)-5-(6-fluoropyridin-3-yl)-1H-indazole-3-carboxamide]	> 6.00
CC(=O)c1cn(CC(=O)N2C[C@H](F)C[C@H]2C(=O)Nc2cccc(Br)n2)c2ccc(-c3cncnc3)cc12 [Compound 14, (2S,4R)-1-(2-(3-acetyl-5-(pyrimidin-5-yl)-1H-indol-1-yl)acetyl)-N-(6-bromopyridin-2-yl)-4-fluoropyrrolidine-2-carboxamide]	> 6.00
CC(=O)c1cn(CC(=O)N2[C@@H]3C[C@@H]3C[C@H]2C(=O)Nc2cccc(-c3ccccc3Cl)c2F)c2ccc(-c3cncnc3)cc12 [Compound 15, (1R,3S,5R)-2-(2-(3-acetyl-5-(pyrimidin-5-yl)-1H-indol-1-yl)acetyl)-N-(2′-chloro-2-fluorobiphenyl-3-yl)-2-azabicyclo[3.1.0] hexane-3-carboxamide]	> 6.00
CC(=O)c1cn(CC(=O)N2C[C@H](F)C[C@H]2C(=O)Nc2cccc(-c3ccccc3Cl)c2F)c2ccc(N3CCN(C(C)=O)CC3)cc12 [Compound 16, (2S,4R)-1-(2-(3-acetyl-5-(4-acetylpiperazin-1-yl)-1H-indol-1-yl)acetyl)-N-(2′-chloro-2-fluorobiphenyl-3-yl)-4-fluoropyrrolidine-2-carboxamide]	> 6.00
CC(=O)c1cn(CC(=O)N2[C@@H]3C[C@@H]3C[C@H]2C(=O)Nc2cccc(Br)n2)c2ccc(-c3cncnc3)cc12 [Compound 17, (1R,3S,5R)-2-(2-(3-acetyl-5-(pyrimidin-5-yl)-1H-indol-1-yl)acetyl)-N-(6-bromopyridin-2-yl)2-azabicyclo[3.1.0] hexane-3-carboxamide]	> 6.00
NC(=O)c1nn(CC(=O)N2C[C@H](F)C[C@H]2C(=O)NCc2cccc(Cl)c2F)c2cnc(-c3cncnc3)cc12 [Compound 18, 1-(2-((2S,4R)-2-(3-chloro-2-fluorobenzyl-carbamoyl)-4-fluoropyrrolidin-1-yl)-2-oxoethyl)-5-(pyrimidin-5-yl)-1H-pyrazolo[3,4-c]pyridine-3-carboxamide]	> 6.00
NC(=O)c1nn(CC(=O)N2C[C@H](F)C[C@H]2C(=O)Nc2cccc(-c3ccccc3Cl)c2F)c2cnc(-c3cncnc3)cc12 [Compound 19, 1-(2-((2S,4R)-2-((2′-Chloro-2-fluoro-[1,1′-biphenyl]-3-yl)carbamoyl)-4-fluoropyrrolidin-1-yl)-2-oxoethyl)-5-(pyrimidin-5-yl)-1H-pyrazolo[3,4-c]pyridine-3-carboxamide]	> 6.00
CC(=O)c1cn(CC(=O)N2C[C@H](F)C[C@H]2C(=O)Nc2cccc(-c3ccccc3Cl)c2F)c2ccc(-c3ccnnc3)cc12 [Compound 20, (2S,4R)-1-(2-(3-Acetyl-5-(pryridazin-4-yl)-1H-indol-1-yl)acetyl)-N-(2′-chloro-2-fluoro-[1,1′-biphenyl]-3-yl)-4-fluoropyrrolidine-2-carboxamide]	> 6.00
COc1ncc(-c2ccc3c(c2)c(C(C)=O)cn3CC(=O)N2C[C@H](F)C[C@H]2C(=O)Nc2cccc(Br)n2)cn1 [Compound 21, (2S,4R)-1-(2-(3-acetyl-5-(2-methoxypyrimidin-5-yl)-1H-indol-1-yl)acetyl)-N-(6-bromopyridin-2-yl)-4-fluoropyrrolidine-2-carboxamide]	> 6.00
CN1CC=C(c2ccc3c(c2)c(C(N)=O)nn3CC(=O)N2C[C@H](F)C[C@H]2C(=O)Nc2cccc(Br)n2)CC1 [Compound 22, 1-(2-((2S,4R)-2-(6-bromopyridin-2-ylcarbamoyl)-4-fluoropyrrolidin-1-yl)-2-oxoethyl)-5-(1-methyl-1,2,3,6-tetrahydropyridin-4-yl)-1H-indazole-3-carboxamide]	> 6.00
NC(=O)c1nn(CC(=O)N2C[C@H](F)C[C@H]2C(=O)Nc2cccc(Br)n2)c2ccc(-c3ccnnc3)cc12 [Compound 25, 1-(2-((2S,4R)-2-(6-bromopyridin-2-ylcarbamoyl)-4-fluoropyrrolidin-1-yl)-2-oxoethyl)-5-(pyridazin-4-yl)-1H-indazole-3-carboxamide]	> 6.00
CC(=O)c1cn(CC(=O)N2C[C@H](F)C[C@H]2C(=O)Nc2cccc(-c3ccccc3Cl)c2F)c2ccc(-c3cnc(N4CCCC4)nc3)cc12 [Compound 26, (2S,4R)-1-(2-(3-acetyl-5-(2-(pyrrolidin-1-yl)pyrimidin-5-yl)-1H-indol-1-yl)acetyl)-N-(2′-chloro-2-fluorobiphenyl-3-yl)-4-fluoropyrrolidine-2-carboxamide]	> 6.00

Same assay, conditions: Human Factor D, Table 3; read-out: IC50

SMILES	pIC50
CC(=O)c1nn(CC(=O)N2C(C(=O)Nc3cccc(Br)n3)C[C@@]3(CN(C)C)C[C@@H]23)c2ccc(-c3cnc(C)nc3)cc12 (stereo in doubt) [Compound 577, (1R,3S,5R)-2-(2-(3-Acetyl-5-(2-methylpyrimidin-5-yl)-1H-indazol-1-yl)acetyl)-N-(6-bromopyridin-2-yl)-5-((dimethylamino)methyl)-2-azabicyclo[3.1.0]hexane-3-carboxamide]	> 6.00
CC(=O)c1nn(CC(=O)N2C(C(=O)Nc3cccc(Br)n3)C[C@]3(CN(C)C)C[C@H]23)c2ccc(-c3cnc(C)nc3)cc12 (stereo in doubt) [Compound 578, (1S,3S,5S)-2-(2-(3-acetyl-5-(2-methylpyrimidin-5-yl)-1H-indazol-1-yl)acetyl)-N-(6-bromopyridin-2-yl)-5-((dimethylamino)methyl)-2-azabicyclo[3.1.0]hexane-3-carboxamide]	> 6.00
CC(=O)c1nn(CC(=O)N2C[C@@](F)(CF)CC2C(=O)Nc2nc(Br)ccc2C)c2ccc(-c3cnc(N)nc3)cc12 (stereo in doubt) [Compound 579, (2S,4R)-1-(2-(3-acetyl-5-(2-aminopyrimidin-5-yl)-1H-indazol-1-yl)acetyl)-N-(6-bromo-3-methylpyridin-2-yl)-4-fluoro-4-(fluoromethyl) pyrrolidine-2-carboxamide]	> 6.00
